Article doi:10.1101/2020.08.04.236877v1 (biorxiv, 2020)

Experiments:
[1] = target: Transporter, Norepinephrine (NET) (Homo sapiens, UniProt P23975); assay: radioligand binding assay; conditions: read-out: % inhibition at 10 μM
Histamine H2 = Histamine H2 (Homo sapiens, UniProt P25021); assay: radioligand binding assay; conditions: read-out: % inhibition or stimulation at 10 μM
Androgen (Testosterone) = Androgen (Testosterone) (Homo sapiens, UniProt P10275); assay: radioligand binding assay; conditions: read-out: % inhibition at 10 μM
[2] = target: Transporter, Dopamine (DAT) (Homo sapiens, UniProt Q01959); assay: radioligand binding assay; conditions: read-out: % inhibition at 10 μM
Serotonin 5-HT2B = Serotonin 5-HT2B (Homo sapiens, UniProt P41595); assay: radioligand binding assay; conditions: read-out: % inhibition at 10 μM
[3] = target: Platelet Activating Factor (PAF) (Homo sapiens, UniProt P25105); assay: biochemical; conditions: read-out: % inhibition or stimulation (human)
Chain of Platelet Activating Factor (PAF) (P25105 whole entry): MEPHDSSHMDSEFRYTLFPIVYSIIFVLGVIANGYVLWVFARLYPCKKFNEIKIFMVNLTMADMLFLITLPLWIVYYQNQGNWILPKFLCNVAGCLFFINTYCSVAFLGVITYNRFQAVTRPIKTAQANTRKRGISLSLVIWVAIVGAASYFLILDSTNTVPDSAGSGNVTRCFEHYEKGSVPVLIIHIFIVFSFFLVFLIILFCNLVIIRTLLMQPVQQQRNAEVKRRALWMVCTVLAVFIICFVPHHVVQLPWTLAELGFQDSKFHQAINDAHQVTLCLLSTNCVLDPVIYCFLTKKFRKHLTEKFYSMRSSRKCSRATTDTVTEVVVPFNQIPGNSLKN

[4] = target: Epidermal Growth Factor (EGF) (Homo sapiens, UniProt P00533); assay: biochemical; conditions: read-out: % inhibition or stimulation (human)
Glucocorticoid = Glucocorticoid (Homo sapiens, UniProt P04150); assay: biochemical; conditions: read-out: % inhibition or stimulation (human)
Adenosine A1 = Adenosine A1 (Homo sapiens, UniProt P30542); assay: biochemical; conditions: read-out: % inhibition or stimulation (human)
Adenosine A2A = Adenosine A2A (Homo sapiens, UniProt P29274); assay: biochemical; conditions: read-out: % inhibition or stimulation (human)
Adenosine A3 = Adenosine A3 (Homo sapiens, UniProt P0DMS8); assay: biochemical; conditions: read-out: % inhibition or stimulation (human)
Adrenergic α1A = Adrenergic α1A (Homo sapiens, UniProt P35348); assay: biochemical; conditions: read-out: % inhibition or stimulation (human)
Adrenergic α1B = Adrenergic α1B (Homo sapiens, UniProt P35368); assay: biochemical; conditions: read-out: % inhibition or stimulation (human)
Chain of Adrenergic α1B (P35368 whole entry): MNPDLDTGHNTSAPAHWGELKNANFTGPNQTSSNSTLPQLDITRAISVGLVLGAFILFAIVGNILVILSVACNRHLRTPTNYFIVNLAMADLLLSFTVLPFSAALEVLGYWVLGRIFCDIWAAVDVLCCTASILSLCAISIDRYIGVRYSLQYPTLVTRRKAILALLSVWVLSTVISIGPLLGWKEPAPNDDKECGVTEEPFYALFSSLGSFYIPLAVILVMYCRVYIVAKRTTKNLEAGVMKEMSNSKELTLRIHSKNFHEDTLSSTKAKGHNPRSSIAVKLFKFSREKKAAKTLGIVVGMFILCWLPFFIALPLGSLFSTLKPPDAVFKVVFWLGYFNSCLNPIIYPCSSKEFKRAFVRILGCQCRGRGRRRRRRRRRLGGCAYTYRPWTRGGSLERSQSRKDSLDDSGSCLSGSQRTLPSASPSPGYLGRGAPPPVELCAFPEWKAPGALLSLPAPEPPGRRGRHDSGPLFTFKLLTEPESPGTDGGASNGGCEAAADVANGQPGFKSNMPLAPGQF

Adrenergic α1D = Adrenergic α1D (Homo sapiens, UniProt P25100); assay: biochemical; conditions: read-out: % inhibition or stimulation (human)
Adrenergic α2A = Adrenergic α2A (Homo sapiens, UniProt P08913); assay: biochemical; conditions: read-out: % inhibition or stimulation (human)
Adrenergic β1 = Adrenergic β1 (Homo sapiens, UniProt P08588); assay: biochemical; conditions: read-out: % inhibition or stimulation (human)
Adrenergic β2 = Adrenergic β2 (Homo sapiens, UniProt P07550); assay: biochemical; conditions: read-out: % inhibition or stimulation (human)
Bradykinin B1 = Bradykinin B1 (Homo sapiens, UniProt P46663); assay: biochemical; conditions: read-out: % inhibition or stimulation (human)
Chain of Bradykinin B1 (P46663 whole entry): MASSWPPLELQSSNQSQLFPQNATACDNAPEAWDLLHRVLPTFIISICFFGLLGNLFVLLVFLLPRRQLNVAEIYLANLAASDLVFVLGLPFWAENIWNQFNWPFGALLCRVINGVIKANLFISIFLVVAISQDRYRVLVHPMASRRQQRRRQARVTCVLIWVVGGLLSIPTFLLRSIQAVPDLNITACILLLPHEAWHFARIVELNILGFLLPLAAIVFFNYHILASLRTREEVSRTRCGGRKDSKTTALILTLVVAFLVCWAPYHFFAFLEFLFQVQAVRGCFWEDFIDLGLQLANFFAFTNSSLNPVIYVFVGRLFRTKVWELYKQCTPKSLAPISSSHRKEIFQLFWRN

Bradykinin B2 = Bradykinin B2 (Homo sapiens, UniProt P30411); assay: biochemical; conditions: read-out: % inhibition or stimulation (human)
Cannabinoid CB1 = Cannabinoid CB1 (Homo sapiens, UniProt P21554); assay: biochemical; conditions: read-out: % inhibition or stimulation (human)
Dopamine D1 = Dopamine D1 (Homo sapiens, UniProt P21728); assay: biochemical; conditions: read-out: % inhibition or stimulation (human)
Dopamine D2S = Dopamine D2S (Homo sapiens, UniProt P14416); assay: biochemical; conditions: read-out: % inhibition or stimulation (human)
Dopamine D3 = Dopamine D3 (Homo sapiens, UniProt P35462); assay: biochemical; conditions: read-out: % inhibition or stimulation (human)
Dopamine D4.4 = Dopamine D4.4 (Homo sapiens, UniProt P21917); assay: biochemical; conditions: read-out: % inhibition or stimulation (human)
Chain of Dopamine D4.4 (P21917 whole entry): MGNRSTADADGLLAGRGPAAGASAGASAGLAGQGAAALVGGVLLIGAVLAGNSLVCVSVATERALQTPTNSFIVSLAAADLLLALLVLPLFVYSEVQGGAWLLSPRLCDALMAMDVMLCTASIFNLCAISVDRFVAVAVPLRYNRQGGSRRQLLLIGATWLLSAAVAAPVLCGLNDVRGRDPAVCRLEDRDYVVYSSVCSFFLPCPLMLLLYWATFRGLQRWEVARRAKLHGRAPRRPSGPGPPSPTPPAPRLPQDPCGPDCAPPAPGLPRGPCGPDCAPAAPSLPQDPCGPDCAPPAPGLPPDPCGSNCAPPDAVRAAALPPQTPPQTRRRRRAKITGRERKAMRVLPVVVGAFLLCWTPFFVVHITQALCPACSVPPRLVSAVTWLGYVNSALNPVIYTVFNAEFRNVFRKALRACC

Endothelin ETA = Endothelin ETA (Homo sapiens, UniProt P25101); assay: biochemical; conditions: read-out: % inhibition or stimulation (human)
Endothelin ETB = Endothelin ETB (Homo sapiens, UniProt P24530); assay: biochemical; conditions: read-out: % inhibition or stimulation (human)
Estrogen ERα = Estrogen ERα (Homo sapiens, UniProt P03372); assay: biochemical; conditions: read-out: % inhibition or stimulation (human)
Chain of Estrogen ERα (P03372 whole entry): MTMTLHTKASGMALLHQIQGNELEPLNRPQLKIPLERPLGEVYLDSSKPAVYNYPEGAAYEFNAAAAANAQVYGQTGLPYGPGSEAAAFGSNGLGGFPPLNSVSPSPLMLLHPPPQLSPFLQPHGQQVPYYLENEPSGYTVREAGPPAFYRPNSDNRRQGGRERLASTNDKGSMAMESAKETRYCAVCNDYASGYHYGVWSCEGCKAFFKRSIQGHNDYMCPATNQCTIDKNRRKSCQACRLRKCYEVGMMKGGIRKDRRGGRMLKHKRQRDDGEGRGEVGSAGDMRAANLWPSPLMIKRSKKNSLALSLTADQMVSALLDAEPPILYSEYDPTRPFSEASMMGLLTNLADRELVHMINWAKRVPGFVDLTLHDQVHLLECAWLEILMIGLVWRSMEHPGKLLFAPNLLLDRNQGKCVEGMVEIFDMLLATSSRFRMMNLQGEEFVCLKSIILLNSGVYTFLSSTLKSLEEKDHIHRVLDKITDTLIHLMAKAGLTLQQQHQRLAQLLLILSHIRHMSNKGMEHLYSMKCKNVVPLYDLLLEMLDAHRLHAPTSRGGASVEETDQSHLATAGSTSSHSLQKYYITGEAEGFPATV

Histamine H1 = Histamine H1 (Homo sapiens, UniProt P35367); assay: biochemical; conditions: read-out: % inhibition or stimulation (human)
Histamine H3 = Histamine H3 (Homo sapiens, UniProt Q9Y5N1); assay: biochemical; conditions: read-out: % inhibition or stimulation (human)
Interleukin IL-1 R1 = Interleukin IL-1 R1 (Homo sapiens, UniProt P14778); assay: biochemical; conditions: read-out: % inhibition or stimulation (human)
[5] = target: Leukotriene, Cysteinyl CysLT1 (Homo sapiens, UniProt Q9Y271); assay: biochemical; conditions: read-out: % inhibition or stimulation (human)
Melatonin MT1 = Melatonin MT1 (Homo sapiens, UniProt P48039); assay: biochemical; conditions: read-out: % inhibition or stimulation (human)
Chain of Melatonin MT1 (P48039 whole entry): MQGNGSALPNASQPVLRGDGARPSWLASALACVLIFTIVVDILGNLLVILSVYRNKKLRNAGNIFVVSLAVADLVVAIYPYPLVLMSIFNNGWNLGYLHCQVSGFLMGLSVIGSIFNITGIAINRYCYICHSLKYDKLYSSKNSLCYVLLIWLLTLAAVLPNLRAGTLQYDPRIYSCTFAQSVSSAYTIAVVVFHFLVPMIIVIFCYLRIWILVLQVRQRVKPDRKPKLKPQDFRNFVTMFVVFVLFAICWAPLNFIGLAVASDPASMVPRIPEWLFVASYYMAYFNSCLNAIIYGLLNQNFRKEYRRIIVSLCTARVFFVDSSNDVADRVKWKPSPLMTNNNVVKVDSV

Muscarinic M1 = Muscarinic M1 (Homo sapiens, UniProt P11229); assay: biochemical; conditions: read-out: % inhibition or stimulation (human)
Muscarinic M2 = Muscarinic M2 (Homo sapiens, UniProt P08172); assay: biochemical; conditions: read-out: % inhibition or stimulation (human)
Chain of Muscarinic M2 (P08172 whole entry): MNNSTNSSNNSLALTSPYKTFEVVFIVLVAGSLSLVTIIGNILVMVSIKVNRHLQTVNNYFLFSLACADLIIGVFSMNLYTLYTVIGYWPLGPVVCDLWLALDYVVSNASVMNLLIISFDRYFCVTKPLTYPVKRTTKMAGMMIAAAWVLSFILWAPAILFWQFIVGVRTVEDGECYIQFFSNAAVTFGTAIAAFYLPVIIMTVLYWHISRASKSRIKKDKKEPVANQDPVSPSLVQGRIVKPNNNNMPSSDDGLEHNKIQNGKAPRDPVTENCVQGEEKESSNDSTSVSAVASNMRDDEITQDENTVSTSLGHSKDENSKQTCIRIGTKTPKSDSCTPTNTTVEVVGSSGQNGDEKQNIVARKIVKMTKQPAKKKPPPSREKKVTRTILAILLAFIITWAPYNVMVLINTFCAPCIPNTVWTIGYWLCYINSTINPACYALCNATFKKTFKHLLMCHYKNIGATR

Muscarinic M3 = Muscarinic M3 (Homo sapiens, UniProt P20309); assay: biochemical; conditions: read-out: % inhibition or stimulation (human)
Neuropeptide Y Y1 = Neuropeptide Y Y1 (Homo sapiens, UniProt P25929); assay: biochemical; conditions: read-out: % inhibition or stimulation (human)
Neuropeptide Y Y2 = Neuropeptide Y Y2 (Homo sapiens, UniProt P49146); assay: biochemical; conditions: read-out: % inhibition or stimulation (human)
[6] = target: Nicotinic Acetylcholine α1, Bungarotoxin (Homo sapiens, UniProt P02708); assay: biochemical; conditions: read-out: % inhibition or stimulation (human)
[7] = target: Nicotinic Acetylcholine α3β4 (Homo sapiens, UniProt P30926+P32297); assay: biochemical; conditions: read-out: % inhibition or stimulation (human)
Opiate µ (OP3, MOP) = Opiate µ (OP3, MOP) (Homo sapiens, UniProt P35372); assay: biochemical; conditions: read-out: % inhibition or stimulation (human)
Opiate δ1 (OP1, DOP) = Opiate δ1 (OP1, DOP) (Homo sapiens, UniProt P41143); assay: biochemical; conditions: read-out: % inhibition or stimulation (human)
Opiate κ (OP2, KOP) = Opiate κ (OP2, KOP) (Homo sapiens, UniProt P41145); assay: biochemical; conditions: read-out: % inhibition or stimulation (human)
Potassium Channel hERG = Potassium Channel hERG (Homo sapiens, UniProt Q12809); assay: in vitro
Chain of Potassium Channel hERG (Q12809 whole entry): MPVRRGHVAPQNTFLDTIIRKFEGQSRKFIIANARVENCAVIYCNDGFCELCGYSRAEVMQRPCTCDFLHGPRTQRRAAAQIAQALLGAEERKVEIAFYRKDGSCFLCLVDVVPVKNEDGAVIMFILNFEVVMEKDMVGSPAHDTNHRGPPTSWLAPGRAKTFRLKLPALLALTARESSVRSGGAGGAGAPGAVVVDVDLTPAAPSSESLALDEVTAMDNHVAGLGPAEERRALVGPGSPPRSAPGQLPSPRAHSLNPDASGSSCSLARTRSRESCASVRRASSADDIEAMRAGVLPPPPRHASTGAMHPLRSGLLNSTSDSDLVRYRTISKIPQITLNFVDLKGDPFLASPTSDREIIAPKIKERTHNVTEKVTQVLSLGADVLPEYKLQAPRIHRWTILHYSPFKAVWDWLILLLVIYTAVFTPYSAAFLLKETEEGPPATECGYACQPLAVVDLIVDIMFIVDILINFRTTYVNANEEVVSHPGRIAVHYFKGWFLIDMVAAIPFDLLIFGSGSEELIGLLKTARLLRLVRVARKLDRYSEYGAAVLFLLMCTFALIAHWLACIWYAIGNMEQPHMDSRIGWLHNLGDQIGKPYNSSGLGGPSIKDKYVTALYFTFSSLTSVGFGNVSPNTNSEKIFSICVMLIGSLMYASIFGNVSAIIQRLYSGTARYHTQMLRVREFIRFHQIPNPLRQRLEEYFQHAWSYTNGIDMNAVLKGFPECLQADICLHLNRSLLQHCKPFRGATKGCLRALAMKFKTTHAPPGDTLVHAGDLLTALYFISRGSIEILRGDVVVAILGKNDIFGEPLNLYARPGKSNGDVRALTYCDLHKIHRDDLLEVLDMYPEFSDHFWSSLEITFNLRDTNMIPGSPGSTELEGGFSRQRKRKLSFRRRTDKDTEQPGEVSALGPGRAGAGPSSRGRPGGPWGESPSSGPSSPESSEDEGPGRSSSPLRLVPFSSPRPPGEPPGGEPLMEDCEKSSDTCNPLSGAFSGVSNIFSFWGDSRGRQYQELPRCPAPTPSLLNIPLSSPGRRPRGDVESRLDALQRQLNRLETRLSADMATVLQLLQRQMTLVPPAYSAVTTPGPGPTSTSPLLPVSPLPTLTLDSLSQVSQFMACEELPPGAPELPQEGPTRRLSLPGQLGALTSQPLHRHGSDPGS

Prostanoid EP4 = Prostanoid EP4 (Homo sapiens, UniProt P35408); assay: biochemical; conditions: read-out: % inhibition or stimulation (human)
[8] = target: Serotonin (5-Hydroxytryptamine) 5-HT1A (Homo sapiens, UniProt P08908); assay: biochemical; conditions: read-out: % inhibition or stimulation (human)
[9] = target: Serotonin (5-Hydroxytryptamine) 5-HT3 (Homo sapiens, UniProt P46098); assay: biochemical; conditions: read-out: % inhibition or stimulation (human)
Sigma σ1 = Sigma σ1 (Homo sapiens, UniProt Q99720); assay: biochemical; conditions: read-out: % inhibition or stimulation (human)
Chain of Sigma σ1 (Q99720 whole entry): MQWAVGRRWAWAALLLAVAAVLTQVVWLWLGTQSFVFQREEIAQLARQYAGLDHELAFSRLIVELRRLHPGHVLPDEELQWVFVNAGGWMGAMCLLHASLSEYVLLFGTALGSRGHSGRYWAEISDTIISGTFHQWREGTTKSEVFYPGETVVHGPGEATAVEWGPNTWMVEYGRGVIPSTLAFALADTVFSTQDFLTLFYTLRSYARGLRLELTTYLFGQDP

Tachykinin NK1 = Tachykinin NK1 (Homo sapiens, UniProt P25103); assay: biochemical; conditions: read-out: % inhibition or stimulation (human)
Chain of Tachykinin NK1 (P25103 whole entry): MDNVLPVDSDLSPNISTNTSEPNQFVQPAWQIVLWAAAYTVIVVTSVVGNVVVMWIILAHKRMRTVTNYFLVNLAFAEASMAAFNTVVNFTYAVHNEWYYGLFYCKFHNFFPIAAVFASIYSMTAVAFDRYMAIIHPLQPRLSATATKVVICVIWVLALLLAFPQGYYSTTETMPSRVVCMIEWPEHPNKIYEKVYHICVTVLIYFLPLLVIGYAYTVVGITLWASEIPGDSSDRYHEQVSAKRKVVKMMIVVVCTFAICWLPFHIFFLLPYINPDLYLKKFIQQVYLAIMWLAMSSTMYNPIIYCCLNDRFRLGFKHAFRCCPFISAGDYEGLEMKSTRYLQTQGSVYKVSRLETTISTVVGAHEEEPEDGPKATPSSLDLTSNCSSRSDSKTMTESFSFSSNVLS

[10] = target: Transporter, Serotonin (5- Hydroxytryptamine) (SERT) (Homo sapiens, UniProt P31645); assay: biochemical; conditions: read-out: % inhibition or stimulation (human)

With CC(C)(C)c1ccc(C2=C(/C=N/O)CCC2)cc1 [8n, (E)-2-(4-(tert-butyl)phenyl)cyclopent-1-ene-1-carbaldehyde oxime] the inhibition at 10 µM [1] was 75%, the inhibition at 10 µM (Histamine H2) was -54% and the inhibition at 10 µM (Androgen (Testosterone)) was 79%. For the same molecule, the inhibition at 10 µM [2] was 86%, the inhibition at 10 µM (Serotonin 5-HT2B) was 63% and the inhibition at 10 µM [3] was -14%. It also gave an inhibition at 10 µM [4] of 2%, an inhibition at 10 µM (Glucocorticoid) of -4% and an inhibition at 10 µM (Adenosine A1) of 33%. It also gave an inhibition at 10 µM (Adenosine A2A) of 16%, an inhibition at 10 µM (Adenosine A3) of 45% and an inhibition at 10 µM (Adrenergic α1A) of 5%. It also gave an inhibition at 10 µM (Adrenergic α1B) of -15%, an inhibition at 10 µM (Adrenergic α1D) of 7% and an inhibition at 10 µM (Adrenergic α2A) of 14%. The inhibition at 10 µM (Adrenergic β1) was 4%, the inhibition at 10 µM (Adrenergic β2) was 12% and the inhibition at 10 µM (Bradykinin B1) was -3%. It also gave an inhibition at 10 µM (Bradykinin B2) of -27%, an inhibition at 10 µM (Cannabinoid CB1) of 20% and an inhibition at 10 µM (Dopamine D1) of 30%. It also gave an inhibition at 10 µM (Dopamine D2S) of 12%, an inhibition at 10 µM (Dopamine D3) of 23% and an inhibition at 10 µM (Dopamine D4.4) of -15%. For the same molecule, the inhibition at 10 µM (Endothelin ETA) was 11%, the inhibition at 10 µM (Endothelin ETB) was 0% and the inhibition at 10 µM (Estrogen ERα) was 6%. The inhibition at 10 µM (Histamine H1) was 42%, the inhibition at 10 µM (Histamine H3) was 0% and the inhibition at 10 µM (Interleukin IL-1 R1) was 19%. The inhibition at 10 µM [5] was 25%, the inhibition at 10 µM (Melatonin MT1) was -3% and the inhibition at 10 µM (Muscarinic M1) was 0%. The inhibition at 10 µM (Muscarinic M2) was 7%, the inhibition at 10 µM (Muscarinic M3) was 9% and the inhibition at 10 µM (Neuropeptide Y Y1) was -6%. It also gave an inhibition at 10 µM (Neuropeptide Y Y2) of -11%, an inhibition at 10 µM [6] of 0% and an inhibition at 10 µM [7] of -1%. It also gave an inhibition at 10 µM (Opiate µ (OP3, MOP)) of 9%, an inhibition at 10 µM (Opiate δ1 (OP1, DOP)) of 7% and an inhibition at 10 µM (Opiate κ (OP2, KOP)) of 0%. It also gave an inhibition at 10 µM (Potassium Channel hERG) of 25%, an inhibition at 10 µM (Prostanoid EP4) of 34% and an inhibition at 10 µM [8] of -42%. It also gave an inhibition at 10 µM [9] of -5%, an inhibition at 10 µM (Sigma σ1) of 33% and an inhibition at 10 µM (Tachykinin NK1) of -2%. For the same molecule, the inhibition at 10 µM [10] was 13%.
